Results reported in article PMC11915801, “Evolutionary trajectory of bacterial resistance to antibiotics and antimicrobial peptides in Escherichia coli” (mSystems, 2025).
Converted amounts (≈) assume the structure as drawn. Read-outs that look alike come from different tables or passages of the source. Where a SMILES comes first, the peptide text is derived from it.

Tests used:
[1] = system: TMP30 (evolved MG1655); experiment: microbe, parasite or virus in culture; assay type: cell-based, Escherichia coli; settings: for MIC: Escherichia coli, MG1655, broth microdilution, trimethoprim-evolved strain
Excerpt: (§1) To ensure the stable resistance evolution and inheritance of MG1655 under different drugs, we randomly selected three monoclonals from the evolved strains. The final antibiotic-evolved strains were designated as AMP120, AZI120, CHL80, CIP120, DOX120, KAN80, NIT70, and TMP30, while the final AMP-evolved strains were named COL120, Ind120, Omi120, Pex120, PGLA120, Pleu120, R8120, SAAP120, LI120, and SLAP120.
(§2) The broth microdilution method was used to measure the MIC values of antibiotics and peptides according to the Clinical and Laboratory Standards Institute guidelines. The MIC value is defined as the lowest drug concentration without visible bacteria.

[2] = system: AMP120 (evolved MG1655); experiment: microbe, parasite or virus in culture; assay type: cell-based, Escherichia coli; settings: Escherichia coli, MG1655; broth microdilution; ampicillin-evolved strain
Excerpt: as §1, §2

[3] = system: COL120 (evolved MG1655); experiment: microbe, parasite or virus in culture; assay type: cell-based, Escherichia coli; settings: Escherichia coli, MG1655; broth microdilution; colistin-evolved strain
Excerpt: as §1, §2

[4] = system: NIT70 (evolved MG1655); experiment: microbe, parasite or virus in culture; assay type: cell-based, Escherichia coli; settings: Escherichia coli, MG1655; broth microdilution; nitrofurantoin-evolved strain
Excerpt: as §1, §2

[5] = system: CIP120 (evolved MG1655); experiment: microbe, parasite or virus in culture; assay type: cell-based, Escherichia coli; settings: Escherichia coli; broth microdilution; ciprofloxacin-evolved strain
Excerpt: as §1, §2

[6] = system: DOX120 (evolved MG1655); experiment: microbe, parasite or virus in culture; assay type: cell-based, Escherichia coli; settings: Escherichia coli, MG1655; broth microdilution; doxycycline-evolved strain
Excerpt: as §1, §2

[7] = system: KAN80 (evolved MG1655); experiment: microbe, parasite or virus in culture; assay type: cell-based, Escherichia coli; settings: Escherichia coli, MG1655; broth microdilution; kanamycin-evolved strain
Excerpt: as §1, §2

[8] = system: AZI120 (evolved MG1655); experiment: microbe, parasite or virus in culture; assay type: cell-based, Escherichia coli; settings: Escherichia coli, MG1655; broth microdilution; azithromycin-evolved strain
Excerpt: as §1, §2

[9] = system: CHL80 (evolved MG1655); experiment: microbe, parasite or virus in culture; assay type: cell-based, Escherichia coli; settings: Escherichia coli, MG1655; broth microdilution; chloramphenicol-evolved strain
Excerpt: as §1, §2

[10] = system: MG1655 dnaA-i; experiment: MIC, CRISPRi dnaA-repressed MG1655; assay type: cell-based; settings: Escherichia coli, broth microdilution, CRISPRi repression of dnaA, anhydrotetracycline 0.5 µg/mL, read-out: MIC values of MG1655 with gene silencing, dnaA-i
Excerpt: as §2
(§3) The engineered CRISPR/CRISPR-associated protein 9 (Cas9) system was used to repress the dnaA, deoB, icd, and thyA genes. Briefly, spacer 1 (5-[…]-3), spacer 2 (5-[…]-3), spacer 3 (5-[…]-3), and spacer 4 (5-[…]-3) were synthesized, and then, the construction of the targeting plasmid psgRNA was performed in a total volume of 25 µL. Subsequently, 1.5 µL of each newly constructed psgRNA and dCas9 was simultaneously electroporated into the competent cells of MG1655. MG1655 containing unmodified psgRNA and dCas9 was used as a control. Anhydrotetracycline at a final concentration of 0.5 µg/mL was used to induce gene repression. RT-qPCR was used to verify the expression of the genes.

[11] = system: E. coli K-12 MG1655; experiment: microbe, parasite or virus in culture; assay type: cell-based, Escherichia coli; settings: Escherichia coli
Procedure: as §2
Eight antibiotics and ten AMPs at the sub-inhibitory concentration were prepared. A 300-µL system, including 260 µL of MH broth, 30 µL of prepared drug, and 10 µL of bacterial culture, was used for resistance passages. After 12 h of incubation at 37℃ and 200 rpm, 10 µL of the above bacterial culture was added into the new sterile drug-containing broth. MIC values of bacterial culture were determined. The drug concentration was adjusted according to the MIC value change until the end of the 120 passages.

[12] = system: mice infected with MG1655; settings: 5.0 × 10^8 CFU i.p.; trimethoprim 60 mg/kg i.p. 1 h after infection; organs at 48 h; n = 6
Procedure: Female BALB/c mice aged 6 to 8 weeks were randomly divided into four groups with six replicates for each group. Of bacterial suspension, 5.0 × 10^8 CFU was intraperitoneally injected to mice for 1 h, followed by a second intraperitoneal injection of trimethoprim (60 mg/kg) or pexiganan (10 mg/kg) or a combination of trimethoprim and pexiganan (30 + 5 mg/kg). The PBS injection group was used as a control. After 48 h, the liver, spleen, and kidneys of the mice were aseptically removed for CFU measurement.

[13] = system: MG1655 WT; experiment: microbe, parasite or virus in culture; assay type: cell-based; settings: Escherichia coli, MG1655, read-out: MIC values of MG1655 with gene silencing, WT
Excerpt: as §2, §3

[14] = system: MG1655 thyA-i; experiment: MIC, CRISPRi thyA-repressed MG1655; assay type: cell-based, Escherichia coli; settings: for MIC: Escherichia coli, MG1655, broth microdilution, CRISPRi repression of thyA, read-out: MIC values of MG1655 with gene silencing, thyA-i
Excerpt: as §2, §3

[15] = system: MG1655 icd-i; experiment: MIC, CRISPRi icd-repressed MG1655; assay type: cell-based; settings: Escherichia coli, broth microdilution, CRISPRi repression of icd, read-out: MIC values of MG1655 with gene silencing, icd-i
Excerpt: as §2, §3

[16] = system: MG1655 deoB-i; experiment: MIC, CRISPRi deoB-repressed MG1655; assay type: cell-based; settings: Escherichia coli, broth microdilution, CRISPRi repression of deoB, read-out: MIC values of MG1655 with gene silencing, deoB-i
Excerpt: as §2, §3

[17] = system: trimethoprim-resistant strains (TMP30); experiment: Disk diffusion experiment, trimethoprim-resistant strains; assay type: cell-based, Escherichia coli; settings: drug 2,048 µg/mL, LB agar, 37°C 24 h
Procedure: (§4) Fifty microliters of bacterial cultures was spread evenly onto LB agar. A prepared circular sterile filter paper was pasted on the center of the petri dish, and the corresponding drugs with a concentration of 2,048 µg/mL were dropped on the center of the circular filter paper. The petri dishes were placed at 37°C for 24 h, and the diameters of the sterile growth circles were measured.

[18] = system: original MG1655; settings: tenfold the MIC of MG1655, 15-120 min, CFU counting
Procedure: (§5) Bacteria were cultured at 37°C and 200 rpm to the logarithmic phase (1 × 10^6 CFU). The corresponding drugs, with a final concentration of tenfold the MIC of MG1655, were added. At 15, 30, 60, 90, and 120 min, 50 µL of the mixture was serially diluted 10-fold and dropped on an LB agar plate for CFU counting.

[19] = system: chloramphenicol-resistant bacteria (CHL80); settings: 15-min exposure, tenfold the MIC of MG1655, 1 × 10^6 CFU log-phase, CFU counting
Procedure: as §5

[20] = system: chloramphenicol-resistant strains (CHL80); experiment: Disk diffusion experiment, chloramphenicol-resistant strains; assay type: cell-based, Escherichia coli; settings: drug 2,048 µg/mL, LB agar, 37°C 24 h
Procedure: as §4

[21] = system: G. mellonella larvae infected by the original MG1655; experiment: G. mellonella infection protection model, original MG1655; assay type: in vivo, Galleria mellonella; settings: monotreatment 30 mg/kg at 1 h post-infection, 5 days, n = 8 per group
Procedure: (§6) The bacterial culture was uniformly diluted with saline to an OD600 of 0.35. G. mellonella larvae (n = 8 per group) were randomly divided, and sterile saline was used as the blank control. In the virulence assessment, 10 µL of bacterial solution was inoculated into each larva using a Hamilton syringe. The survival of larvae was observed and recorded daily for 7 days.
(§7) For the larval infection protection model, larvae were infected with wild-type and antibiotic-resistant strains and treated with a dose of 30 mg/kg of drugs at the left foot of the last gastropod at 1 h post-infection, and the survival was monitored for 5 days.

[22] = system: G. mellonella larvae infected with chloramphenicol-resistant strains; experiment: G. mellonella infection protection model, chloramphenicol-resistant strain; assay type: in vivo, Galleria mellonella; settings: monotreatment 30 mg/kg at 1 h post-infection, 5 days, n = 8 per group
Procedure: as §6, §7

[23] = MG1655, 12 h, read-out: MIC of MG1655 under the pressure of the same drug, generation 10
[24] = MG1655, read-out: MIC of MG1655 under the pressure of the same drug, generation primary
[25] = MG1655, as E2, generation 20, read-out: MIC of MG1655 under the pressure of the same drug, generation 20
[26] = MG1655, as E2, generation 30, read-out: MIC of MG1655 under the pressure of the same drug, generation 30

Compound | MIC [1] | MIC [2] | MIC [3] | MIC [4] | MIC [5] | MIC [6] | MIC [7] | MIC [8] | MIC [9] | MIC [10] | MIC [11, 23] | MIC [11, 24] | MIC [11, 25] | MIC [11, 26] | MIC [13] | MIC [14] | MIC [15] | MIC [16] | also measured
COc1cc(Cc2cnc(N)nc2N)cc(OC)c1OC [TMP, Trimethoprim] | 512 mg/L (≈ 1760 µM) | 128 mg/L (≈ 441 µM) | 128 mg/L (≈ 441 µM) | 128 mg/L (≈ 441 µM) | 128 mg/L (≈ 441 µM) | 128 mg/L (≈ 441 µM) | 128 mg/L (≈ 441 µM) | 64 mg/L (≈ 220 µM) | 128 mg/L (≈ 441 µM) | 64 mg/L (≈ 220 µM) | 128 mg/L | 64 mg/L | 128 mg/L | 512 mg/L | 64 mg/L (≈ 220 µM) | 256 mg/L (≈ 882 µM) | 128 mg/L (≈ 441 µM) | 128 mg/L (≈ 441 µM) | bacterial loads in the liver, spleen, and kidneys of mice infected with MG1655 [12]: decreased significantly; increase in MIC in thyA-i strains vs original MG1655 ([14]; CRISPRi thyA repression): four-fold increase in MIC
O=C1CN(/N=C/c2ccc([N+](=O)[O-])o2)C(=O)N1 [NIT, Nitrofurantoin] | 4 mg/L (≈ 16.8 µM) | 16 mg/L (≈ 67.2 µM) | 8 mg/L (≈ 33.6 µM) | 512 mg/L (≈ 2150 µM) | 16 mg/L (≈ 67.2 µM) | 16 mg/L (≈ 67.2 µM) | 8 mg/L (≈ 33.6 µM) | 16 mg/L (≈ 67.2 µM) | 4 mg/L (≈ 16.8 µM) | 16 mg/L (≈ 67.2 µM) | 16 mg/L | 16 mg/L | 16 mg/L | 64 mg/L | 16 mg/L (≈ 67.2 µM) | 8 mg/L (≈ 33.6 µM) | 16 mg/L (≈ 67.2 µM) | 16 mg/L (≈ 67.2 µM) | collateral sensitivity of TMP30 (fold change of MIC vs wild-type MG1655) ([1]; MIC of TMP30 compared with MG1655): exceeding fourfold; inhibition halo on trimethoprim-resistant strains (in words) [17]: significant inhibitory effect; CFU reduction of original MG1655 [18]: decreased by less than one-log; killing of chloramphenicol-resistant bacteria (CFU) [19]: completely eradicated; MIC ([11]; MG1655, as E2, generation 40, read-out: MIC of MG1655 under the pressure of the same drug, generation 40): 64 mg/L; MIC ([11]; MG1655, as E2, generation 50, read-out: MIC of MG1655 under the pressure of the same drug, generation 50): 128 mg/L; MIC ([11]; MG1655, as E2, generation 60, read-out: MIC of MG1655 under the pressure of the same drug, generation 60): 256 mg/L; MIC ([11]; MG1655, as E2, generation 70, read-out: MIC of MG1655 under the pressure of the same drug, generation 70): 512 mg/L
CC[C@H](C)[C@H](NC(=O)[C@H](CCCNC(=N)N)NC(=O)[C@H](CS)NC(=O)[C@H](CC(C)C)NC(=O)[C@H](CCCCN)NC(=O)[C@H](CCCCN)NC(=O)[C@H](CC(C)C)NC(=O)[C@@H](NC(=O)[C@H](CCCNC(=N)N)NC(=O)[C@H](CS)NC(=O)[C@H](CC(C)C)NC(=O)[C@H](CCCCN)NC(=O)[C@H](CCCCN)NC(=O)[C@@H](N)CC(C)C)[C@@H](C)CC)C(=O)O [LI, LI14] (H-LKKLCRILKKLCRI-OH; N-terminus and C-terminus assumed) |  |  |  |  |  |  |  |  |  |  |  |  |  |  |  |  |  |  | inhibition halo on chloramphenicol-resistant strains (in words) [20]: noticeable inhibitory effect; survival of larvae infected by the original MG1655 [21]: all larvae infected by the original MG1655 died; survival rate of larvae infected with chloramphenicol-resistant strains [22]: 62.5%
